From patent US20250170268A1, “METHODS AND TOOLS FOR CONJUGATION TO ANTIBODIES” (priority 2022, published 2025)

What was measured:
Format in all cases: cell-based
Conditions in all cases: Homo sapiens
[1] = tested on: CEACAM5-positive SNU-16 cells; test: Cell viability assay (Cell Titer-Glo, six days) on SNU-16
Experimental: (§1) Cytotoxicity effects of the ADC on the cancer cell lines were measured by cell viability assays. Cells were seeded in a volume of 90 μL in 96-well plates the day before treatment. Test compounds (ADCs or free payloads) were formulated at 10-fold the starting concentration in cell culture medium. Test compounds were serial diluted (1:4) and 10 μL of each dilution was added to the cells in triplicates. Plates were cultured at 37° C. in a CO2 incubator for six days. For cell viability measurement, Cell Titer-Glo® reagent (Promega™ Corp, Madison, WI) was added to each well, and plates processed according to the manufacturer's instructions. Luminescence signals were measured using a Varioskan plate reader (Thermo Fisher). Luminescence readings were converted to % viability relative to untreated cells. Data was fitted with non-linear regression analysis, using log (inhibitor) vs. response, variable slope, 4-parameter fit equation using Genedata Screener or GraphPad Prism. Data is shown as % relative cell viability vs. molar compound concentration, error bars indicating standard deviation (SD) of duplicates or triplicates. Geometric mean values of IC50s derived from multiple experiments were calculated.
(§2) A fold reduction in IC50, defined as a S[…], was calculated by dividing the IC50 against CEACAM5-negative MDA-MB-231 cells by the IC50 against each CEACAM5-positive cell line (see Table 6). […]

[2] = tested on: CEACAM5-positive SK-CO-1 cells; test: Cell viability assay (Cell Titer-Glo, six days) on SK-CO-1
Experimental: as §1, §2

[3] = tested on: CEACAM5-negative MDA-MB-231 cells; test: Cell viability assay (Cell Titer-Glo, six days) on MDA-MB-231
Experimental: as §1, §2

[4] = tested on: CEACAM5-positive MKN-45 cells; test: Cell viability assay (Cell Titer-Glo, six days) on MKN-45
Experimental: as §1, §2

[5] = tested on: CEACAM5-positive LS174T cells; test: Cell viability assay (Cell Titer-Glo, six days) on LS174T
Experimental: as §1

IC50 ([1]; 144 h, read-out: SNU-16 IC50 [M], n ≥ 2, SNU-16, CEACAM5 positive, six days, geometric mean): 2.9e-10 M
IC50 ([2]; 144 h, read-out: SK-CO-1 IC50 [M], n ≥ 2, SK-CO-1, CEACAM5 positive, six days, geometric mean): 2.2e-10 M
IC50 ([3]; 144 h, read-out: MDA-MB-231 IC50 [M], n ≥ 3, MDA-MB-231, CEACAM5 negative, six days, n/a = below −50% effect cut-off): 6e-10 M
IC50 ([4]; 144 h, read-out: MKN-45 IC50 [M], n ≥ 2, MKN-45, CEACAM5 positive, six days, geometric mean): 6.6e-10 M
Structure (SMILES): CC[C@@]1(O)C(=O)OCc2c1cc1n(c2=O)Cc2c-1nc1cc(F)c(C)c3c1c2[C@@H](N)CC3 [Payload, (1S,9S)-1-Amino-9-ethyl-5-fluoro-1,2,3,9,12,15-hexahydro-9-hydroxy-4-methyl-10H, 13H-benzo (de) pyrano (3′,4′: 6,7) indolizino (1,2-b) quinoline-10,13-dione]
Emax ([1]; SNU-16, at the highest tested compound concentration, read-out: Maximal effect compared to untreated controls, SNU-16): -99%
Emax ([2]; SK-CO-1, at the highest tested compound concentration, read-out: Maximal effect compared to untreated controls, SK-CO-1): -97%
Emax ([3]; MDA-MB-231, at the highest tested compound concentration, read-out: Maximal effect compared to untreated controls, MDA-MB-231): -91%
Emax ([4]; MKN-45, at the highest tested compound concentration, read-out: Maximal effect compared to untreated controls, MKN-45): -100%
IC50 ([5]; 144 h, read-out: LS174T IC50 [M], n ≥ 2, CEACAM5 positive, six days, geometric mean): 3e-10 M
Emax ([5]; at the highest tested compound concentration, read-out: Maximal effect compared to untreated controls, LS174T): -91%
